Reference: patent US7858646B2, “Potentiators of glutamate receptors” (Eli Lilly and Company, priority 2004, dated 2010)

Legend:
[1] = target: T1, human mGlu2 receptors (Homo sapiens, UniProt Q14416); assay: Potentiation of glutamate-induced increase in intracellular calcium with a mGlu2 expressing cell line (FLIPR); format: cell-based; conditions: RGT cells expressing human mGlu2 and Galpha15; with submaximal glutamate (e.g. 1 μM)
T1 construct: expressed in transfected cells; host or cells: RGT cells (co-transfected with rat GLAST, stably transfected with Galpha15)
Method: Potentiation of Glutamate-Induced Increase in Intracellular Calcium with a mGlu2 Expressing Cell Line.
Cell lines expressing human mGlu2 receptors are derived as previously described (Desai, Burnett, Mayne, Schoepp, Mol. Pharmacol. 48, 648-657, 1995) and cultured in DMEM with 5% dialyzed fetal bovine serum, 1 mM glutamine, 1 mM sodium pyruvate, 50 μg/mL Geneticin G418, and 0.2 mg/mL hygromycin B. Confluent cultures are passaged weekly. These cells are referred to as RGT cells for Rat Glutamate Transporter, and have been co-transfected with the glutamate/aspartate transporter GLAST. The RGT cell line expressing the mGlu2 receptors is stably transfected with the promiscuous G-protein, Galpha15 to change the signaling pathway to the mGlu2 receptor to one that could be easily measured through release of intracellular calcium. Thus, intracellular calcium levels are monitored before and after the addition of drugs on a Fluorometric Imaging Plate Reader (i.e. FLIPR, Molecular Devices). The following buffer is used throughout as an assay buffer: 10 mM KCl, 138 mM NaCl, 5 mM Ca Cl2, 1 mM MgC2, 4 mM Na H2PO4, 10 mM Glucose, 10 mM HEPES, pH 7.4. Cells that had been plated 48 hours prior at a density of 30-40,000 cells per well in a 96-well plate are loaded with a calcium-sensitive dye for 90 minutes at 25° C. Fluo-3 (2 mM in DMSO, Molecular Probes) are mixed with a equal volume of 10% pluronic acid in DMSO, and diluted to 8 μM into the buffer described above containing 10% fetal bovine serum to make the loading buffer. Following loading of the cells, the loading buffer is removed and replaced with assay buffer prior to drug addition and monitoring on the FLIPR. The resulting signal from the addition of compounds of formula (I) and submaximal concentrations of a glutamate-site agonist (e.g. 1 μM glutamate) is determined by taking the difference of the maximal fluorescent peak height minus the background fluorescence in each well and expressing the results as a percent of the signal seen with a maximal glutamate response (30 μM glutamate, typically about 30-50,000 Relative Fluorescent Units). Least squares curve fitting with a four-parameter equation is then applied to the resulting dose-% response curve to determine the resulting EC50 values.

[2] = target: T2, human CysLT1 receptor (Homo sapiens, UniProt Q9Y271); assay: Antagonism of LTD4-induced increase in intracellular calcium within a CysLT1 receptor expressing cell line (FLIPR); format: cell-based; conditions: AV12-664 cells expressing human CysLT1; 6 nM LTD4; read-out: antagonism of CysLT1 receptors, IC50
T2 construct: expressed in transfected cells; host or cells: AV12-664 (ATCC-9595)
T2 sequence (Q9Y271 1-337): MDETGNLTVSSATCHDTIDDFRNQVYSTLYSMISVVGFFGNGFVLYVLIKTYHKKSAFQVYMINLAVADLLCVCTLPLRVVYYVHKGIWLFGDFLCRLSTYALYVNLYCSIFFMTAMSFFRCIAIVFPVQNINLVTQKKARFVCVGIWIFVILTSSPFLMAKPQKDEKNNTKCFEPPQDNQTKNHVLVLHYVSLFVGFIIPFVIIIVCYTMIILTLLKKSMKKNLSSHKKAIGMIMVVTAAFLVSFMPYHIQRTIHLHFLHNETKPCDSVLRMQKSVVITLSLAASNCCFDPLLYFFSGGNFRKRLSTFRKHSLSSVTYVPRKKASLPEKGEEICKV
Method: Antagonism of Cysteinyl-leukotriene D4 (LTD4)-Induced Increase in Intracellular Calcium within a Cysteinyl-Leukotriene 1 (CysLT1) Receptor Expressing Cell Line.
Cell lines expressing the human CysLT1 receptor [AV12-664 (ATCC-9595)] are derived and maintained in culture media: DMEM with 5% dialyzed fetal bovine serum, 1 mM glutamine, and 1 mM sodium pyruvate. Confluent cultures are passaged weekly. Intracellular calcium levels are monitored in the CysLT1-expressing cells with the addition of LTD4, with or without prior exposure to the compounds being tested as antagonists with a Fluorometric Imaging Plate Reader (FLIPR, Molecular Devices). The following buffer is used throughout as an assay buffer: Hanks Buffered Saline Solution without phenol red (GIBCO), with 10 mM HEPES pH 7.4. Cells that had been plated 48 hours prior at a density of 20-25,000 cells per well in a 96-well plate are loaded with a calcium-sensitive dye for 90 minutes at 25° C. Fluo-3 (2 mM in DMSO, Molecular Probes) is mixed with an equal volume of 10% pluronic acid in DMSO, and diluted to 8 μM in the buffer described above containing 10% fetal bovine serum to make the loading buffer. Following loading of the cells, the buffer is removed and replaced with assay buffer prior to drug addition and monitoring on the FLIPR for several minutes. The resulting signal from the addition of 6 nM LTD4 (provides approximately 90% of the maximal signal with 25 nM LTD4) is determined by taking the difference of the maximal fluorescent peak height minus the background fluorescence in each well and expressing the results as a percent of the signal seen without pretreatment of the test compound(s). Least squares curve fitting with a four-parameter equation is applied to the resulting dose-% inhibition curve to determine the resulting IC50 values.

T1 sequence (Q14416 19-872): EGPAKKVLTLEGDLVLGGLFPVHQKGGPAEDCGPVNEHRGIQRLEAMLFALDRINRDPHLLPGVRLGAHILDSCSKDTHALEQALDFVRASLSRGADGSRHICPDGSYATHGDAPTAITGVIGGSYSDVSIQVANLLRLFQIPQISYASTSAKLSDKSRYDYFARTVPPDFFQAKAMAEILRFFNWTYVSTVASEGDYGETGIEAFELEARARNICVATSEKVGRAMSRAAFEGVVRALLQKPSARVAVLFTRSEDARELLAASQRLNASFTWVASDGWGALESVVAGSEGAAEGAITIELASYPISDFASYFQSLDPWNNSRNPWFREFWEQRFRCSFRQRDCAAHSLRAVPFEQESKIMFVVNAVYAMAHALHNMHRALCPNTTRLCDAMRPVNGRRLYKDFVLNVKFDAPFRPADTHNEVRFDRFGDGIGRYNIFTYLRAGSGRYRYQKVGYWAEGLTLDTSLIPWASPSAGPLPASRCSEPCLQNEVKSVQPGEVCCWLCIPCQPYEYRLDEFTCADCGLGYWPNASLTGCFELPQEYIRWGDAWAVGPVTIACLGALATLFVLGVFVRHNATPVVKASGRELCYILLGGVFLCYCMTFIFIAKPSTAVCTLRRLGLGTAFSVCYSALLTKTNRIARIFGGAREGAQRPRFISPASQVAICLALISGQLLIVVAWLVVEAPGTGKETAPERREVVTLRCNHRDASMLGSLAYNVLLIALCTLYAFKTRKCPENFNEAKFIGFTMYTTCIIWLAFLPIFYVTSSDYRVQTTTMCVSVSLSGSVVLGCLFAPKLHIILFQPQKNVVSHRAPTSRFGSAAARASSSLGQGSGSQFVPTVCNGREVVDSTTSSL

CCCc1c(OCc2cccc(Sc3cc(C(=O)O)ccn3)c2)ccc(C(C)=O)c1O [Example 84, 6-(3-((4-acetyl-3-hydroxy-2-propylphenoxy)methyl)phenylthio)isonicotinic acid]
EC50 [1]: < 350 nM
IC50 [2]: < 150 nM

CC(=O)c1ccc(OCc2ccc(Oc3cc(-c4nn[nH]n4)ccn3)cc2)c(C)c1O [Example 21, 1-(2-Hydroxy-3-methyl-4-{4-[4-(1H-tetrazol-5-yl)-pyridin-2-yloxy]-benzyloxy}-phenyl)-ethanone]
EC50 [1]: < 350 nM
IC50 [2]: < 150 nM

CC(=O)c1ccc(OCc2ccc(Oc3cccc(-c4nn[nH]n4)c3)cc2)c(C)c1O [Example 22, 1-(2-Hydroxy-3-methyl-4-{4-[3-(1H-tetrazol-5-yl)-phenoxy]-benzyloxy}-phenyl)-ethanone]
EC50 [1]: < 350 nM

CC(=O)c1ccc(OCc2cccc(Oc3cc(-c4nn[nH]n4)ccn3)c2)c(C(F)(F)F)c1O [Example 27, 1-(2-Hydroxy-4-{3-[4-(2H-tetrazol-5-yl)-pyridin-2-yloxy]-benzyloxy}-3-trifluoromethyl-phenyl)-ethanone]
EC50 [1]: < 350 nM
IC50 [2]: < 150 nM
